{"source": "ChEMBL document CHEMBL3112480", "about": "“γ-Alkylidene-γ-lactones and isobutylpyrrol-2(5H)-ones analogues to rubrolides as inhibitors of biofilm formation by gram-positive and gram-negative bacteria” (Bioorg Med Chem Lett, 2014)", "key": {"[1]": {"tested_on": "Staphylococcus aureus", "assay": "Antibacterial activity against Staphylococcus aureus ATCC 25923 assessed as effect on planktonic growth at 0.34 ug/ml after 20 hrs relative to control", "type": "functional"}, "[2]": {"tested_on": "Streptococcus mutans", "assay": "Antibacterial activity against Streptococcus mutans ATCC 25175 assessed as effect on planktonic growth at 10.9 ug/ml after 20 hrs relative to control", "type": "functional"}, "[3]": {"tested_on": "Streptococcus mutans", "assay": "Antibacterial activity against Streptococcus mutans ATCC 25175 assessed as effect on planktonic growth at 0.68 ug/ml after 20 hrs relative to control", "type": "functional"}, "[4]": {"tested_on": "Pseudomonas aeruginosa", "assay": "Antibacterial activity against Pseudomonas aeruginosa ATCC 27853 assessed as effect on planktonic growth at 0.68 ug/ml after 20 hrs relative to control", "type": "functional"}, "[5]": {"tested_on": "Staphylococcus aureus", "assay": "Antibacterial activity against Staphylococcus aureus ATCC 25923 assessed as effect on planktonic growth at 43.8 ug/ml after 20 hrs relative to control", "type": "functional"}, "[6]": {"tested_on": "Staphylococcus aureus", "assay": "Antibacterial activity against Staphylococcus aureus ATCC 25923 assessed as effect on planktonic growth at 10.9 ug/ml after 20 hrs relative to control", "type": "functional"}, "[7]": {"tested_on": "Staphylococcus epidermidis", "assay": "Antibacterial activity against Staphylococcus epidermidis ATCC 35547 assessed as effect on planktonic growth at 0.34 ug/ml after 20 hrs relative to control", "type": "functional"}, "[8]": {"tested_on": "Pseudomonas aeruginosa", "assay": "Antibacterial activity against Pseudomonas aeruginosa ATCC 27853 assessed as effect on planktonic growth at 10.9 ug/ml after 20 hrs relative to control", "type": "functional"}, "[9]": {"tested_on": "Streptococcus mutans", "assay": "Antibacterial activity against Streptococcus mutans ATCC 25175 assessed as effect on planktonic growth at 21.9 ug/ml after 20 hrs relative to control", "type": "functional"}, "[10]": {"tested_on": "Streptococcus mutans", "assay": "Antibacterial activity against Streptococcus mutans ATCC 25175 assessed as effect on planktonic growth at 87.5 ug/ml after 20 hrs relative to control", "type": "functional"}, "[11]": {"tested_on": "Staphylococcus epidermidis", "assay": "Antibacterial activity against Staphylococcus epidermidis ATCC 35547 assessed as effect on planktonic growth at 87.5 ug/ml after 20 hrs relative to control", "type": "functional"}, "[12]": {"tested_on": "Streptococcus mutans", "assay": "Antibacterial activity against Streptococcus mutans ATCC 25175 assessed as effect on planktonic growth at 1.37 ug/ml after 20 hrs relative to control", "type": "functional"}, "[13]": {"tested_on": "Staphylococcus epidermidis", "assay": "Antibacterial activity against Staphylococcus epidermidis ATCC 35547 assessed as effect on planktonic growth at 43.8 ug/ml after 20 hrs relative to control", "type": "functional"}, "[14]": {"tested_on": "Staphylococcus aureus", "assay": "Antibacterial activity against Staphylococcus aureus ATCC 25923 assessed as effect on planktonic growth at 21.9 ug/ml after 20 hrs relative to control", "type": "functional"}, "[15]": {"tested_on": "Pseudomonas aeruginosa", "assay": "Antibacterial activity against Pseudomonas aeruginosa ATCC 27853 assessed as effect on planktonic growth at 43.8 ug/ml after 20 hrs relative to control", "type": "functional"}, "[16]": {"tested_on": "Pseudomonas aeruginosa", "assay": "Antibacterial activity against Pseudomonas aeruginosa ATCC 27853 assessed as effect on planktonic growth at 2.73 ug/ml after 20 hrs relative to control", "type": "functional"}, "[17]": {"tested_on": "Streptococcus mutans", "assay": "Antibacterial activity against Streptococcus mutans ATCC 25175 assessed as effect on planktonic growth at 43.8 ug/ml after 20 hrs relative to control", "type": "functional"}, "[18]": {"tested_on": "Pseudomonas aeruginosa", "assay": "Antibacterial activity against Pseudomonas aeruginosa ATCC 27853 assessed as effect on planktonic growth at 0.34 ug/ml after 20 hrs relative to control", "type": "functional"}, "[19]": {"tested_on": "Pseudomonas aeruginosa", "assay": "Antibacterial activity against Pseudomonas aeruginosa ATCC 27853 assessed as inhibition of biofilm formation after 20 hrs by crystal-violet staining method", "type": "functional, organism-based"}, "[20]": {"tested_on": "Staphylococcus epidermidis", "assay": "Antibacterial activity against Staphylococcus epidermidis ATCC 35547 assessed as inhibition of biofilm formation after 20 hrs by crystal-violet staining method", "type": "functional, organism-based"}, "[21]": {"tested_on": "Streptococcus mutans", "assay": "Antibacterial activity against Streptococcus mutans ATCC 25175 assessed as effect on planktonic growth at 2.73 ug/ml after 20 hrs relative to control", "type": "functional"}, "[22]": {"tested_on": "Staphylococcus aureus", "assay": "Antibacterial activity against Staphylococcus aureus ATCC 25923 assessed as effect on planktonic growth at 5.5 ug/ml after 20 hrs relative to control", "type": "functional"}, "[23]": {"tested_on": "Staphylococcus aureus", "assay": "Antibacterial activity against Staphylococcus aureus ATCC 25923 assessed as effect on planktonic growth at 0.17 ug/ml after 20 hrs relative to control", "type": "functional"}, "[24]": {"tested_on": "Staphylococcus epidermidis", "assay": "Antibacterial activity against Staphylococcus epidermidis ATCC 35547 assessed as effect on planktonic growth at 0.17 ug/ml after 20 hrs relative to control", "type": "functional"}, "[25]": {"tested_on": "Streptococcus mutans", "assay": "Antibacterial activity against Streptococcus mutans ATCC 25175 assessed as effect on planktonic growth at 5.5 ug/ml after 20 hrs relative to control", "type": "functional"}, "[26]": {"tested_on": "Staphylococcus epidermidis", "assay": "Antibacterial activity against Staphylococcus epidermidis ATCC 35547 assessed as effect on planktonic growth at 10.9 ug/ml after 20 hrs relative to control", "type": "functional"}, "[27]": {"tested_on": "Pseudomonas aeruginosa", "assay": "Antibacterial activity against Pseudomonas aeruginosa ATCC 27853 assessed as effect on planktonic growth at 1.37 ug/ml after 20 hrs relative to control", "type": "functional"}, "[28]": {"tested_on": "Staphylococcus aureus", "assay": "Antibacterial activity against Staphylococcus aureus ATCC 25923 assessed as effect on planktonic growth at 2.73 ug/ml after 20 hrs relative to control", "type": "functional"}, "[29]": {"tested_on": "Staphylococcus epidermidis", "assay": "Antibacterial activity against Staphylococcus epidermidis ATCC 35547 assessed as effect on planktonic growth at 1.37 ug/ml after 20 hrs relative to control", "type": "functional"}, "[30]": {"tested_on": "Pseudomonas aeruginosa", "assay": "Antibacterial activity against Pseudomonas aeruginosa ATCC 27853 assessed as effect on planktonic growth at 21.9 ug/ml after 20 hrs relative to control", "type": "functional"}, "[31]": {"tested_on": "Staphylococcus aureus", "assay": "Antibacterial activity against Staphylococcus aureus ATCC 25923 assessed as effect on planktonic growth at 1.37 ug/ml after 20 hrs relative to control", "type": "functional"}, "[32]": {"tested_on": "Pseudomonas aeruginosa", "assay": "Antibacterial activity against Pseudomonas aeruginosa ATCC 27853 assessed as effect on planktonic growth at 5.5 ug/ml after 20 hrs relative to control", "type": "functional"}, "[33]": {"tested_on": "Pseudomonas aeruginosa", "assay": "Antibacterial activity against Pseudomonas aeruginosa ATCC 27853 assessed as effect on planktonic growth at 87.5 ug/ml after 20 hrs relative to control", "type": "functional"}, "[34]": {"tested_on": "Staphylococcus epidermidis", "assay": "Antibacterial activity against Staphylococcus epidermidis ATCC 35547 assessed as effect on planktonic growth at 21.9 ug/ml after 20 hrs relative to control", "type": "functional"}, "[35]": {"tested_on": "Staphylococcus epidermidis", "assay": "Antibacterial activity against Staphylococcus epidermidis ATCC 35547 assessed as effect on planktonic growth at 5.5 ug/ml after 20 hrs relative to control", "type": "functional"}, "[36]": {"tested_on": "Staphylococcus aureus", "assay": "Antibacterial activity against Staphylococcus aureus ATCC 25923 assessed as effect on planktonic growth at 0.68 ug/ml after 20 hrs relative to control", "type": "functional"}, "[37]": {"tested_on": "Staphylococcus aureus", "assay": "Antibacterial activity against Staphylococcus aureus ATCC 25923 assessed as effect on planktonic growth at 87.5 ug/ml after 20 hrs relative to control", "type": "functional"}, "[38]": {"tested_on": "Staphylococcus epidermidis", "assay": "Antibacterial activity against Staphylococcus epidermidis ATCC 35547 assessed as effect on planktonic growth at 2.73 ug/ml after 20 hrs relative to control", "type": "functional"}, "[39]": {"tested_on": "Streptococcus mutans", "assay": "Antibacterial activity against Streptococcus mutans ATCC 25175 assessed as effect on planktonic growth at 0.34 ug/ml after 20 hrs relative to control", "type": "functional"}, "[40]": {"tested_on": "Pseudomonas aeruginosa", "assay": "Antibacterial activity against Pseudomonas aeruginosa ATCC 27853 assessed as effect on planktonic growth at 0.17 ug/ml after 20 hrs relative to control", "type": "functional"}, "[41]": {"tested_on": "Streptococcus mutans", "assay": "Antibacterial activity against Streptococcus mutans ATCC 25175 assessed as effect on planktonic growth at 0.17 ug/ml after 20 hrs relative to control", "type": "functional"}, "[42]": {"tested_on": "Staphylococcus epidermidis", "assay": "Antibacterial activity against Staphylococcus epidermidis ATCC 35547 assessed as effect on planktonic growth at 0.68 ug/ml after 20 hrs relative to control", "type": "functional"}}}
{"smiles": "COc1ccc(Br)cc1C1=C(Br)C(=O)N(CC(C)C)C1(O)Cc1ccc(Br)cc1", "note": "(stereo not drawn)", "values": [{"measurement": "Activity", "setting": "[1]", "value": -3.4, "unit": "%"}, {"measurement": "Activity", "setting": "[2]", "value": -8, "unit": "%"}, {"measurement": "Activity", "setting": "[3]", "value": -8, "unit": "%"}, {"measurement": "Activity", "setting": "[4]", "value": -7, "unit": "%"}, {"measurement": "Activity", "setting": "[5]", "value": -13.7, "unit": "%"}, {"measurement": "Activity", "setting": "[6]", "value": -11.3, "unit": "%"}, {"measurement": "Activity", "setting": "[7]", "value": 4.3, "unit": "%"}, {"measurement": "Activity", "setting": "[8]", "value": 64.1, "unit": "%"}, {"measurement": "Activity", "setting": "[9]", "value": -13.7, "unit": "%"}, {"measurement": "Activity", "setting": "[10]", "value": 0.2, "unit": "%"}, {"measurement": "Activity", "setting": "[11]", "value": 29.8, "unit": "%"}, {"measurement": "Activity", "setting": "[12]", "value": 4, "unit": "%"}, {"measurement": "Activity", "setting": "[13]", "value": 43.6, "unit": "%"}, {"measurement": "Activity", "setting": "[14]", "value": -15.6, "unit": "%"}, {"measurement": "Activity", "setting": "[15]", "value": 63.9, "unit": "%"}, {"measurement": "Activity", "setting": "[16]", "value": 0.8, "unit": "%"}, {"measurement": "Activity", "setting": "[17]", "value": -17.9, "unit": "%"}, {"measurement": "Activity", "setting": "[18]", "value": -5.7, "unit": "%"}, {"measurement": "inhibition", "setting": "[19]", "value": "Dose-dependent effect"}, {"measurement": "inhibition", "setting": "[20]", "value": "Dose-dependent effect"}, {"measurement": "IC50", "setting": "[20]; ATCC 35547, 20 h", "value": 13.3, "unit": "µg/mL"}, {"measurement": "Activity", "setting": "[21]", "value": -6, "unit": "%"}, {"measurement": "Activity", "setting": "[22]", "value": -9, "unit": "%"}, {"measurement": "Activity", "setting": "[23]", "value": 1.1, "unit": "%"}, {"measurement": "Activity", "setting": "[24]", "value": 2.1, "unit": "%"}, {"measurement": "Activity", "setting": "[25]", "value": -3, "unit": "%"}, {"measurement": "Activity", "setting": "[26]", "value": 11.2, "unit": "%"}, {"measurement": "Activity", "setting": "[27]", "value": -4.5, "unit": "%"}, {"measurement": "Activity", "setting": "[28]", "value": -17.9, "unit": "%"}, {"measurement": "Activity", "setting": "[29]", "value": 8, "unit": "%"}, {"measurement": "Activity", "setting": "[30]", "value": 58.3, "unit": "%"}, {"measurement": "Activity", "setting": "[31]", "value": -14.8, "unit": "%"}, {"measurement": "Activity", "setting": "[32]", "value": 58.3, "unit": "%"}, {"measurement": "Activity", "setting": "[33]", "value": 39.4, "unit": "%"}, {"measurement": "Activity", "setting": "[34]", "value": 55.8, "unit": "%"}, {"measurement": "Activity", "setting": "[35]", "value": -2.4, "unit": "%"}, {"measurement": "Activity", "setting": "[36]", "value": -10.8, "unit": "%"}, {"measurement": "Activity", "setting": "[37]", "value": 7.4, "unit": "%"}, {"measurement": "Activity", "setting": "[38]", "value": 4.8, "unit": "%"}, {"measurement": "Activity", "setting": "[39]", "value": -7, "unit": "%"}, {"measurement": "Activity", "setting": "[40]", "value": -4, "unit": "%"}, {"measurement": "Activity", "setting": "[41]", "value": -13.2, "unit": "%"}, {"measurement": "Activity", "setting": "[42]", "value": -5.4, "unit": "%"}]}
